Results reported in patent publication US8895695B2, “Template-fixed beta-hairpin peptidomimetics with CXCR4 antagonizing activity” (priority 2003, dated 2014).
Bridge positions count the residues as written; N and C are the ends. Square brackets hold non-standard residues; d marks the D form. Peptide text beside a SMILES is read from it. 2Nal = N[C@@H](Cc1ccc2ccccc2c1)C(=O)O; Cit = NC(=O)NCCC[C@H](N)C(=O)O

How the values were obtained:
[1] = test system: human red blood cells (hRBC); experiment: Hemolysis; type: cell-based
Method in brief: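 Washed fresh human erythrocytes (20% v/v, about 0.9×10^9 cells/ml final) incubated with peptide at 100 μM for 1 h at 37° C. Supernatant diluted 20-fold and OD540 read. Percent hemolysis relative to 0.1% Triton X-100 in H2O (100%), with PBS alone as 0%.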

[2] = in vitro; settings: human
[3] = biological target: CXCR4 (Homo sapiens, UniProt P61073); experiment: Ca2+-assay method 2 (Flexstation, SDF-1 induced calcium mobilization); type: cell-based; parameters: expressed in transfected cells; host or cells: mouse pre-B cell line 300-19; settings: method 2 (Ex. 54-160), mouse pre-B cell line 300-19 with human CXCR4, 10 nM SDF-1; read-out: IC50 (nM) Ca^2+ assay
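For GI50 in this document: MTT reduction read as absorbance at 595 nm, blank-corrected and expressed as percent growth relative to the time-zero cell reading, triplicate wells per concentration.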

Sequence of CXCR4 (P61073 whole entry): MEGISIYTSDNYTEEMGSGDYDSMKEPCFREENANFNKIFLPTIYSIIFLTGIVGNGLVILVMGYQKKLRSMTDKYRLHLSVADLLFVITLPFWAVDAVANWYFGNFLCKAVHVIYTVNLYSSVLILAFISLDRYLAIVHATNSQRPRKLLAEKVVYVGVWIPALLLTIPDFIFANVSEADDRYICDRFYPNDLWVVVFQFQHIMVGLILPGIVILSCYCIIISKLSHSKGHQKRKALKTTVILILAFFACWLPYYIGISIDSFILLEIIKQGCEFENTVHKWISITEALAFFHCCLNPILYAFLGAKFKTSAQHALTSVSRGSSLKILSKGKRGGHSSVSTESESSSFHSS

Structure (SMILES) | Hemolysis at 100 μM [1] [%] | GI50 at 48 h [2] [µM] | IC50 [3] [nM]
N=C(N)NCCC[C@@H]1NC(=O)[C@@H]2CSSC[C@H](NC(=O)[C@H](Cc3ccc4ccccc4c3)NC(=O)[C@H](CCCNC(=N)N)NC(=O)[C@H](CCCNC(=N)N)NC(=O)[C@H]3CCCN3C(=O)CNC1=O)C(=O)N[C@@H](Cc1ccc(O)cc1)C(=O)N[C@@H](CC(=O)O)C(=O)N[C@@H](CCCCN)C(=O)N1CCC[C@@H]1C(=O)N1CCC[C@H]1C(=O)N[C@@H](Cc1ccc(O)cc1)C(=O)N[C@@H](CCCNC(=N)N)C(=O)N[C@@H](CCCNC(N)=O)C(=O)N2 [Ex. 78] (cyclo(YR[Cit]CRG[dP]RR[2Nal]CYDK[dP]P); disulfide 4-11) | 0.1 | 69 | 11
N=C(N)NCCC[C@@H]1NC(=O)[C@@H]2CSSC[C@H](NC(=O)[C@H](Cc3ccc4ccccc4c3)NC(=O)[C@H](CCCNC(=N)N)NC(=O)[C@H](CCCNC(=N)N)NC(=O)[C@H]3CCCN3C(=O)CNC1=O)C(=O)N[C@@H](Cc1ccc(O)cc1)C(=O)N[C@@H](CCCCN)C(=O)N[C@@H](CCCCN)C(=O)N1CCC[C@@H]1C(=O)N1CCC[C@H]1C(=O)N[C@@H](Cc1ccc(O)cc1)C(=O)N[C@@H](CCCNC(=N)N)C(=O)N[C@@H](CCCNC(N)=O)C(=O)N2 [Ex. 79] (cyclo(YR[Cit]CRG[dP]RR[2Nal]CYKK[dP]P); disulfide 4-11) | 0 | 94 | 2.4
C[C@@H]1NC(=O)[C@H](Cc2ccc(O)cc2)NC(=O)[C@@H]2CSSC[C@H](NC(=O)[C@H](CCCNC(N)=O)NC(=O)[C@H](CCCNC(=N)N)NC(=O)[C@H](Cc3ccc(O)cc3)NC(=O)[C@@H]3CCCN3C(=O)[C@H]3CCCN3C(=O)[C@H](CCCCN)NC1=O)C(=O)N[C@@H](CCCNC(=N)N)C(=O)NCC(=O)N1CCC[C@@H]1C(=O)N[C@@H](CCCNC(=N)N)C(=O)N[C@@H](CCCNC(=N)N)C(=O)N[C@@H](Cc1ccc3ccccc3c1)C(=O)N2 [Ex. 80] (cyclo(YR[Cit]CRG[dP]RR[2Nal]CYAK[dP]P); disulfide 4-11) | 0.1 | 44 | 2.9
N=C(N)NCCC[C@@H]1NC(=O)[C@@H]2CSSC[C@H](NC(=O)[C@H](Cc3ccc4ccccc4c3)NC(=O)[C@H](CCCNC(=N)N)NC(=O)[C@H](CCCNC(=N)N)NC(=O)[C@H]3CCCN3C(=O)CNC1=O)C(=O)N[C@@H](Cc1ccc(O)cc1)C(=O)N[C@@H](CO)C(=O)N[C@@H](CCCCN)C(=O)N1CCC[C@@H]1C(=O)N1CCC[C@H]1C(=O)N[C@@H](Cc1ccc(O)cc1)C(=O)N[C@@H](CCCNC(=N)N)C(=O)N[C@@H](CCCNC(N)=O)C(=O)N2 [Ex. 81] (cyclo(YR[Cit]CRG[dP]RR[2Nal]CYSK[dP]P); disulfide 4-11) | 0 | 45 | 4.9
CC(C)C[C@@H]1NC(=O)[C@H](Cc2ccc(O)cc2)NC(=O)[C@@H]2CSSC[C@H](NC(=O)[C@H](CCCNC(N)=O)NC(=O)[C@H](CCCNC(=N)N)NC(=O)[C@H](Cc3ccc(O)cc3)NC(=O)[C@@H]3CCCN3C(=O)[C@H]3CCCN3C(=O)[C@H](CCCCN)NC1=O)C(=O)N[C@@H](CCCNC(=N)N)C(=O)NCC(=O)N1CCC[C@@H]1C(=O)N[C@@H](CCCNC(=N)N)C(=O)N[C@@H](CCCNC(=N)N)C(=O)N[C@@H](Cc1ccc3ccccc3c1)C(=O)N2 [Ex. 82] (cyclo(YR[Cit]CRG[dP]RR[2Nal]CYLK[dP]P); disulfide 4-11) | 0 | 40 | 4.8
CSCC[C@@H]1NC(=O)[C@H](Cc2ccc(O)cc2)NC(=O)[C@@H]2CSSC[C@H](NC(=O)[C@H](CCCNC(N)=O)NC(=O)[C@H](CCCNC(=N)N)NC(=O)[C@H](Cc3ccc(O)cc3)NC(=O)[C@@H]3CCCN3C(=O)[C@H]3CCCN3C(=O)[C@H](CCCCN)NC1=O)C(=O)N[C@@H](CCCNC(=N)N)C(=O)NCC(=O)N1CCC[C@@H]1C(=O)N[C@@H](CCCNC(=N)N)C(=O)N[C@@H](CCCNC(=N)N)C(=O)N[C@@H](Cc1ccc3ccccc3c1)C(=O)N2 [Ex. 83] (cyclo(YR[Cit]CRG[dP]RR[2Nal]CYMK[dP]P); disulfide 4-11) | 0.1 | 48 | 3.7
N=C(N)NCCC[C@@H]1NC(=O)[C@@H]2CSSC[C@H](NC(=O)[C@H](Cc3ccc4ccccc4c3)NC(=O)[C@H](CCCNC(=N)N)NC(=O)[C@H](CCCNC(=N)N)NC(=O)[C@H]3CCCN3C(=O)CNC1=O)C(=O)N[C@@H](Cc1ccc(O)cc1)C(=O)N[C@@H](CCC(N)=O)C(=O)N[C@@H](CC(N)=O)C(=O)N1CCC[C@@H]1C(=O)N1CCC[C@H]1C(=O)N[C@@H](Cc1ccc(O)cc1)C(=O)N[C@@H](CCCNC(=N)N)C(=O)N[C@@H](CCCNC(N)=O)C(=O)N2 [Ex. 84] (cyclo(YR[Cit]CRG[dP]RR[2Nal]CYQN[dP]P); disulfide 4-11) | 0 | 62 | 3.9
C[C@@H]1NC(=O)[C@H](CCC(N)=O)NC(=O)[C@H](Cc2ccc(O)cc2)NC(=O)[C@@H]2CSSC[C@H](NC(=O)[C@H](CCCNC(N)=O)NC(=O)[C@H](CCCNC(=N)N)NC(=O)[C@H](Cc3ccc(O)cc3)NC(=O)[C@@H]3CCCN3C(=O)[C@H]3CCCN3C1=O)C(=O)N[C@@H](CCCNC(=N)N)C(=O)NCC(=O)N1CCC[C@@H]1C(=O)N[C@@H](CCCNC(=N)N)C(=O)N[C@@H](CCCNC(=N)N)C(=O)N[C@@H](Cc1ccc3ccccc3c1)C(=O)N2 [Ex. 86] (cyclo(YR[Cit]CRG[dP]RR[2Nal]CYQA[dP]P); disulfide 4-11) | 0 | 62 | 0.69
N=C(N)NCCC[C@@H]1NC(=O)[C@@H]2CSSC[C@H](NC(=O)[C@H](Cc3ccc4ccccc4c3)NC(=O)[C@H](CCCNC(=N)N)NC(=O)[C@H](CCCNC(=N)N)NC(=O)[C@H]3CCCN3C(=O)CNC1=O)C(=O)N[C@@H](Cc1ccc(O)cc1)C(=O)N[C@@H](CCC(N)=O)C(=O)N[C@@H](CO)C(=O)N1CCC[C@@H]1C(=O)N1CCC[C@H]1C(=O)N[C@@H](Cc1ccc(O)cc1)C(=O)N[C@@H](CCCNC(=N)N)C(=O)N[C@@H](CCCNC(N)=O)C(=O)N2 [Ex. 87] (cyclo(YR[Cit]CRG[dP]RR[2Nal]CYQS[dP]P); disulfide 4-11) | 0 | 64 | 3.5
N=C(N)NCCC[C@@H]1NC(=O)[C@@H]2CSSC[C@H](NC(=O)[C@H](Cc3ccc4ccccc4c3)NC(=O)[C@H](CCCNC(=N)N)NC(=O)[C@H](CCCNC(=N)N)NC(=O)[C@H]3CCCN3C(=O)CNC1=O)C(=O)N[C@@H](Cc1ccc(O)cc1)C(=O)N[C@@H](CCC(N)=O)C(=O)N[C@@H](CCCCN)C(=O)N1CCC[C@@H]1C(=O)N1CCC[C@H]1C(=O)N[C@@H](CC(=O)O)C(=O)N[C@@H](CCCNC(=N)N)C(=O)N[C@@H](CCCNC(N)=O)C(=O)N2 [Ex. 88] (cyclo(DR[Cit]CRG[dP]RR[2Nal]CYQK[dP]P); disulfide 4-11) | 0 | 44 | 2.5
N=C(N)NCCC[C@@H]1NC(=O)[C@@H]2CSSC[C@H](NC(=O)[C@H](Cc3ccc4ccccc4c3)NC(=O)[C@H](CCCNC(=N)N)NC(=O)[C@H](CCCNC(=N)N)NC(=O)[C@H]3CCCN3C(=O)CNC1=O)C(=O)N[C@@H](Cc1ccc(O)cc1)C(=O)N[C@@H](CCC(N)=O)C(=O)N[C@@H](CCCCN)C(=O)N1CCC[C@@H]1C(=O)N1CCC[C@H]1C(=O)N[C@@H](CO)C(=O)N[C@@H](CCCNC(=N)N)C(=O)N[C@@H](CCCNC(N)=O)C(=O)N2 [Ex. 89] (cyclo(SR[Cit]CRG[dP]RR[2Nal]CYQK[dP]P); disulfide 4-11) | 0 | 50 | 0.5
CC(C)[C@@H]1NC(=O)[C@@H]2CCCN2C(=O)[C@H]2CCCN2C(=O)[C@H](CCCCN)NC(=O)[C@H](CCC(N)=O)NC(=O)[C@H](Cc2ccc(O)cc2)NC(=O)[C@@H]2CSSC[C@H](NC(=O)[C@H](CCCNC(N)=O)NC(=O)[C@H](CCCNC(=N)N)NC1=O)C(=O)N[C@@H](CCCNC(=N)N)C(=O)NCC(=O)N1CCC[C@@H]1C(=O)N[C@@H](CCCNC(=N)N)C(=O)N[C@@H](CCCNC(=N)N)C(=O)N[C@@H](Cc1ccc3ccccc3c1)C(=O)N2 [Ex. 90] (cyclo(VR[Cit]CRG[dP]RR[2Nal]CYQK[dP]P); disulfide 4-11) | 0.1 | 57 | 19.5
CSCC[C@@H]1NC(=O)[C@@H]2CCCN2C(=O)[C@H]2CCCN2C(=O)[C@H](CCCCN)NC(=O)[C@H](CCC(N)=O)NC(=O)[C@H](Cc2ccc(O)cc2)NC(=O)[C@@H]2CSSC[C@H](NC(=O)[C@H](CCCNC(N)=O)NC(=O)[C@H](CCCNC(=N)N)NC1=O)C(=O)N[C@@H](CCCNC(=N)N)C(=O)NCC(=O)N1CCC[C@@H]1C(=O)N[C@@H](CCCNC(=N)N)C(=O)N[C@@H](CCCNC(=N)N)C(=O)N[C@@H](Cc1ccc3ccccc3c1)C(=O)N2 [Ex. 91] (cyclo(MR[Cit]CRG[dP]RR[2Nal]CYQK[dP]P); disulfide 4-11) | 0.2 | 48 | 2.1
N=C(N)NCCC[C@@H]1NC(=O)[C@@H]2CSSC[C@H](NC(=O)[C@H](Cc3ccc4ccccc4c3)NC(=O)[C@H](CCCNC(=N)N)NC(=O)[C@H](CCCNC(=N)N)NC(=O)[C@H]3CCCN3C(=O)CNC1=O)C(=O)N[C@@H](Cc1ccc(O)cc1)C(=O)N[C@@H](CCC(N)=O)C(=O)N[C@@H](CCCCN)C(=O)N1CCC[C@@H]1C(=O)N1CCC[C@H]1C(=O)N[C@@H](Cc1ccc(O)cc1)C(=O)N[C@@H](CCCNC(=N)N)C(=O)N[C@@H](CC(N)=O)C(=O)N2 [Ex. 92] (cyclo(YRNCRG[dP]RR[2Nal]CYQK[dP]P); disulfide 4-11) | 0.5 | 53 | 1.1
